Laboratory results reported in patent US20180228743A1, “COMPOUNDS AND METHODS OF PROMOTING MYELINATION” (Case Western Reserve University, priority 2016, published 2018).
Counter-ions that a name gives are not always drawn.

Legend:
EpiSC-derived OPCs [1] = assay: In vitro phenotypic screening of OPCs (MBP+ oligodendrocytes at 72 h); assay type: cell-based, mouse; conditions: 72 h
OPCs = assay: GC/MS-based sterol profiling in OPCs; assay type: cell-based, mouse; conditions: 24 h treatment (siRNA 96 h)
EpiSC-derived OPCs [2] = assay: High-throughput screening of 3,000 bioactive small molecules for MBP+ oligodendrocyte formation from OPCs; assay type: cell-based, mouse; conditions: 2 μM, 72 h; for % 0ligos: MBP+ oligodendrocytes; for fold-change in % MBP + oligodendrocytes / fold induction at 2 µM: relative to DMSO controls of the same plate; for fold induction at 2 µM: Mus musculus, read-out: fold-change in % MBP + oligodendrocytes
From the text: Plates were imaged on the Operetta High Content Imaging and Analysis system (PerkinElmer) and a set of 6 fields captured from each well resulting in an average of 1200 cells being scored per well. Analysis (PerkinElmer Harmony and Columbus software) began by identifying intact nuclei stained by DAPI; that is, those traced nuclei that were larger than 300 μm^2 in surface area. Each traced nucleus region was then expanded by 50% and cross-referenced with the […] (MBP) stain to identify oligodendrocyte nuclei, and from this the percentage of oligodendrocytes was calculated. In some experiments, the total process length of MBP+ oligodendrocytes was calculated as previously described.
EpiSC-derived OPCs were grown and expanded in poly-ornithine and laminin-coated flasks before harvesting for plating. Cells were dispensed in differentiation media supplemented with Noggin (R&D Systems; 100 ng/ml), Neurotrophin 3 (R&D Systems; 10 ng/ml), cAMP (Sigma; 50 μM), and IGF-1 (R&D Systems; 100 ng/ml)) using a Biotek EL406 Microplate Washer Dispenser (Biotek) equipped with 5 μL dispense cassette (Biotek), into poly-D-lysine/laminin (Sigma, L2020; 4 μg/ml)-coated sterile, 384-well, CellCarrier ultra plates (PerkinElmer), to a final density of 12,500 cells per well and allowed to attach for 45 min before addition of drug. A 3 mM stock of bioactive compound library in dimethylsulphoxide (DMSO) were prepared in an Abgene storage 384-well plate (ThermoFisher Scientific; AB1055). These were added to assay plates using a 50 nL solid pin tool attached to Janus automated workstation (Perkin Elmer), resulting in a final screening concentration of 2 μM. Cells were incubated at 37° C. for 1 hour and then T3 (Sigma; 40 ng/ml) was added to all wells except negative controls, to which FGF (20 ng/ml) was added instead. Negative controls and T3-alone were included in each assay plate. After incubation at 37° C. for 72 h, cells were fixed, washed and stained similar to 96-well OPC assay protocol, although all the washing steps were performed using a Biotek EL406 Microplate Washer Dispenser (Biotek) equipped with a 96-well aspiration manifold. Cells were stained with DAPI (Sigma; 1 μg/ml) and MBP antibody (Abcam, ab7349; 1:100). Plates were imaged on the Operetta High Content Imaging and Analysis system (PerkinElmer) and a set of 4 fields captured from each well resulting in an average of 700 cells being scored per well. Analysis was performed as in High-Content Imaging and Analysis, above. All plates for the primary screen were processed and analyzed simultaneously to minimize variability. Molecules causing more than 20% reduction in nuclear count relative to DMSO control wells were removed from consideration, and hits were called on the basis of largest fold-increase in percentage of MBP+ oligodendrocytes relative to DMSO controls within the same plate.

rat CYP51 = molecular target: T1, rat CYP51 (Rattus norvegicus, UniProt Q64654); assay: CYP51 enzymatic assay (LC/MS quantitation of FF-MAS); assay type: biochemical
T1 construct: purchased Cypex, Inc
T1 sequence (Q64654 1-503): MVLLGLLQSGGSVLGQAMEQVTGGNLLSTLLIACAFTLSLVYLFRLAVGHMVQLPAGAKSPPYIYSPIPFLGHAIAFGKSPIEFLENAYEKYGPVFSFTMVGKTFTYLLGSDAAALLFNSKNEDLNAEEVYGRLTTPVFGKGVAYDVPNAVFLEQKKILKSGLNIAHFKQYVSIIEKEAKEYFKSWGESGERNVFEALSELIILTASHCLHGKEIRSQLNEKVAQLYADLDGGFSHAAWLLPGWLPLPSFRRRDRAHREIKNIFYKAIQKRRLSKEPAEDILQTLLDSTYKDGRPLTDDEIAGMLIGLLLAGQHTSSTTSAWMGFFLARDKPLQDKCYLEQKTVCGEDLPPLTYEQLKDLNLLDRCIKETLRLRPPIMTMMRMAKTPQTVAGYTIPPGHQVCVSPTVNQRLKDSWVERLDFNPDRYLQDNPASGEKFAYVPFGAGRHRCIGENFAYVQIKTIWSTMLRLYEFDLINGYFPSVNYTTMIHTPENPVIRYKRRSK
Experimental: Finally, 15 μl of each reaction/isopropanol mixture was injected onto a SCIEX Triple Quad 6500 LC-MS/MS system using an APCI ion source in positive ion mode with a Shimadzu UFLC-20AD HPLC and a Phenomenex

Molecule: CC(C)CCC[C@@H](C)[C@H]1CC=C2C3=C(CC[C@@]21C)[C@@]1(C)CCC(O)CC1CC3 (stereo partly shown) [14-dehydrozymostenol, cholesta-8,14-dien-3-ol]
- formation of MBP+ oligodendrocytes from OPCs (EpiSC-derived OPCs [1]): enhanced the formation of MBP+ oligodendrocytes

Molecule: C=C(c1ccc(C(=O)O)cc1)c1cc2c(cc1C)C(C)(C)CCC2(C)C [bexarotene, Bexarotene]
- sterol levels / sterol intermediate accumulation in OPCs (OPCs): minimal effects on sterol levels

Molecule: O=C1Cc2cc(CCN3CCN(c4nsc5ccccc45)CC3)c(Cl)cc2N1 [Ziprasidone hydrochloride monohydrate]
- % 0ligos (EpiSC-derived OPCs [2]; hydrochloride monohydrate): 32.78%
- fold-change in % MBP + oligodendrocytes (EpiSC-derived OPCs [2]; hydrochloride monohydrate): 3.71
- cell viability (% relative to DMS0) (EpiSC-derived OPCs [2]; hydrochloride monohydrate): 116.11%

Molecule: Cl.Clc1ccc(N2CCN(Cc3c[nH]c4ncccc34)CC2)cc1 [L-745,870 hydrochloride]
- % 0ligos (EpiSC-derived OPCs [2]): 32.61%

Molecule: CC(C)CCC[C@@H](C)[C@H]1CC[C@H]2[C@@H]3CC=C4C[C@@H](O)CC[C@]4(C)[C@H]3CC[C@]12C [cholesterol, Cholesterol]
- formation of MBP+ oligodendrocytes from OPCs (EpiSC-derived OPCs [1]): ineffective

Molecule: CN1CCC[C@@H]1CCO[C@](C)(c1ccccc1)c1ccc(Cl)cc1 [Clemastine fumarate]
- % 0ligos (EpiSC-derived OPCs [2]): 20.49%
- oligodendrocyte formation in combination with ketoconazole (EpiSC-derived OPCs [1]; ketoconazole 2.5 μM (maximally effective dose)): did not enhance differentiation above levels seen for ketoconazole alone
- sterol levels / sterol intermediate accumulation in OPCs (OPCs): induced accumulation of zymostenol and zymosterol and decreased basal sterol levels

Molecule: Clc1ccc(C(Cn2ccnc2)OCc2ccc(Sc3ccccc3)cc2)c(Cl)c1 (stereo not shown) [Fenticonazole Nitrate]
- cell viability (% relative to DMS0) (EpiSC-derived OPCs [2]): 103.63%
- % 0ligos (EpiSC-derived OPCs [2]): 35.66%
- fold induction at 2 µM (EpiSC-derived OPCs [2]): 4

Molecule: O=C(C1CCCCC1)N1CC(=O)N2CCc3ccccc3C2C1 (stereo not shown) [Praziquantel]
- cell viability (% relative to DMS0) (EpiSC-derived OPCs [2]): 109.81%
- % 0ligos (EpiSC-derived OPCs [2]): 33.24%
- fold induction at 2 µM (EpiSC-derived OPCs [2]): 3.72

Molecule: (±)-Vesamicol
- cell viability (% relative to DMS0) (EpiSC-derived OPCs [2]): 112.02%
- % 0ligos (EpiSC-derived OPCs [2]): 34.23%
- fold-change in % MBP + oligodendrocytes (EpiSC-derived OPCs [2]): 3.87

Molecule: Clc1ccc(CSC(Cn2ccnc2)c2ccc(Cl)cc2Cl)cc1 (stereo not shown) [Sulconazole Nitrate]
- cell viability (% relative to DMS0) (EpiSC-derived OPCs [2]): 104.84%
- % 0ligos (EpiSC-derived OPCs [2]): 37.57%
- fold induction at 2 µM (EpiSC-derived OPCs [2]): 4.44

Molecule: CCc1nc(N)nc(N)c1-c1ccc(Cl)cc1 [Pyrimethamine]
- cell viability (% relative to DMS0) (EpiSC-derived OPCs [2]): 91.11%
- % 0ligos (EpiSC-derived OPCs [2]): 43.87%
- fold induction at 2 µM (EpiSC-derived OPCs [2]): 4.92

Molecule: CC(C)CCC[C@@H](C)[C@H]1CC[C@H]2C3=C(CC[C@]12C)[C@@]1(C)CC[C@H](O)C[C@@H]1CC3 [zymostenol, Zymostenol]
- formation of MBP+ oligodendrocytes from OPCs (EpiSC-derived OPCs [1]): enhanced the formation of MBP+ oligodendrocytes

Molecule: Cc1cc(Nc2cc(CN3CCOCC3)c3nc(C)c(Cc4ccc(Cl)cc4F)n3n2)n[nH]1 [LY2784544]
- cell viability (% relative to DMS0) (EpiSC-derived OPCs [2]): 87.93%
- % 0ligos (EpiSC-derived OPCs [2]): 28.75%
- fold induction at 2 µM (EpiSC-derived OPCs [2]): 3.62

Molecule: CCN(CC)CCCCCCCCOC(=O)c1cc(OC)c(OC)c(OC)c1.Cl [TMB-8 hydrochloride]
- cell viability (% relative to DMS0) (EpiSC-derived OPCs [2]): 139.42%
- % 0ligos (EpiSC-derived OPCs [2]): 18.47%
- fold-change in % MBP + oligodendrocytes (EpiSC-derived OPCs [2]): 3.89

Molecule: CC(=O)N1CCN(c2ccc(OC[C@H]3CO[C@@](Cn4ccnc4)(c4ccc(Cl)cc4Cl)O3)cc2)CC1 (stereo in doubt) [S-trans-Ketoconazole]
- inhibition of mammalian CYP51 in vitro (rat CYP51): strikingly less effective at inhibiting mammalian CYP51

Molecule: Clc1ccc(CCC(Cn2ccnc2)Sc2c(Cl)cccc2Cl)cc1 (stereo not shown) [Butoconazole nitrate]
- cell viability (% relative to DMS0) (EpiSC-derived OPCs [2]): 122.03%
- % 0ligos (EpiSC-derived OPCs [2]): 46.85%
- fold induction at 2 µM (EpiSC-derived OPCs [2]): 5.25

Molecule: N[C@@H](Cc1cc(I)c(Oc2ccc(O)c(I)c2)c(I)c1)C(=O)O [liothyronine, Liothyronine]
- sterol levels / sterol intermediate accumulation in OPCs (OPCs): minimal effects on sterol levels
